# pIC50: −log10 of the molar value.
# Legend:
# Huh-7D12 cells [1] = assay: Apoptosis induction (FITC Annexin V / 7-AAD flow cytometry)
# Experimental: (§5) The exemplary effects of the combined treatment of TTFields and sorafenib was tested using the following human HCC cell lines: HepG2 (ATCC) and Huh-7D12 (Sigma). All cells were grown in a humidified incubator supplied with 5% CO2. HepG2 were maintained in EMEM, supplemented with 10% FBS, 2 mmol/L glutamine, Pen-Strep solution (100 units/ml Penicillin and 0.1 mg/ml Streptomycin), 1 mmol/L sodium pyruvate and 1% NEAA. […] Sorafenib was obtained from BioVision, USA.
# (§6) For apoptosis analysis, cells were removed with Trypsin immediately after 72 h treatment, washed twice with ice-cold PBS with 1% FBS, and stained using FITC Annexin V Apoptosis Detection Kit and 7-AAD (BioLegend, USA). Early, late, and total apoptosis was then quantified using the EC800 flow cytometer (Sony Biotechnology, Japan).
# HepG2 cells [2] = assay: as above
# Experimental: as §5, §6
# Huh-7D12 cells [3] = assay: Cytotoxicity assay and overall effect (cell counts by flow cytometry); type: cell-based, human
# Experimental: (§1) All combination experiments were performed at a frequency of 150 kHz. In these examples, the electric field intensity was 1.0 V/cm for HepG2 and 1.7 V/cm for Huh-7D12 cells. Both cell lines were grown at various sorafenib concentrations (0.1-3.0 μM), and were treated with TTFields for 72 hours. […] The number of cells was determined at the end of treatment and is expressed as a percentage of control cells.
# (§2) Sorafenib was obtained from BioVision, USA.
# (§3) TTFields (1.0-1.7 V/cm RMS, 150 kHz) were applied for 72 hours to cell lines using the Inovitro™ system. At the end of treatment, inhibition of tumor cell growth was analysed quantitatively based on cell counts performed on EC800 flow cytometer (Sony Biotechnology, Japan).
# HepG2 cells [4] = assay: as above; type: cell-based, human
# Experimental: as §1, §2, §3
# Huh-7D12 cells [5] = assay: Clonogenic survival; type: cell-based, human
# Experimental: as §2
# (§4) At the end of treatment, cells were removed with trypsin, counted, plated in 6-well plates (300 cells/plate) and incubated for 2-3 weeks in CO2 incubator at 37° C. When colonies reached 40-100 cells/colony, they were fixed with 100% methanol, stained with 0.5% crystal violet (Sigma), photographed, and the number of clones was quantified using ImageJ program.
# HepG2 cells [6] = assay: Clonogenic survival; type: cell-based, human
# Experimental: as §2, §4
# [7] = test system: N1S1 Hepatocellular Carcinoma; assay: N1S1 orthotopic HCC rat model, tumor volume by MRI; type: in vivo; conditions: Sprague Dawley rats, N1S1 liver tumor, sorafenib 10 mg/kg/day IP + TTFields 150 kHz 2.86 V/cm
# Experimental: In this experiment, the volume of the tumor was measured using MRI on day 6 (one day before treatment start) and day 14 (one day after the end of treatment); and each data point in FIG. 7 represents the volume of the tumor on day 14 divided by the volume of the tumor on day 6. Thus, numbers greater than 1 represent growth in the tumor volume, and numbers smaller than 1 represent a tumor that has shrunk between day 6 and day 14.
# In the first part, the efficacy of different Sorafenib concentrations in combination with TTFields was tested, and one concentration was used during future experiments (10 mg/kg/day over 5 days). In the following experiments, the combined treatment of a single Sorafenib concentration and TTFields (150 kHz) was tested.
# All animals were injected orthotopically to the left lobe of the liver with N1S1 Hepatocellular Carcinoma model (Garin E. et al., 2005) by day 0 as described in SOP-BI-036. The peritoneum was closed using sutures and the wound was closed using clips. On day 6, all animals underwent first MRI (as described in SOP-BI-029) and were randomly divided into groups. […]
# Tumor volume was determined based on MRI scans on days 7, 14 and day 21 after injection. […] Tumor volume was measured by manual segmentation of the tumor using ITK-SNAP version 3.6.0-rc1 free software.
compound,measurement,setting,value
"CNC(=O)c1cc(Oc2ccc(NC(=O)Nc3ccc(Cl)c(C(F)(F)F)c3)cc2)ccn1 [sorafenib, 4-[4-[[4-chloro-3-(trifluoromethyl)phenyl]carbamoylamino]phenoxy]-N-methylpyridine-2-carboxamide]","apoptotic events, sorafenib alone","Huh-7D12 cells [1]; Huh-7D12, 72 hours, sorafenib from no drug to 3 μM",increased apoptotic events
same,"additional increase in apoptosis, sorafenib with TTFields","Huh-7D12 cells [1]; Huh-7D12, sorafenib + TTFields 150 kHz 1.7 V/cm, 72 hours, range stated for both cell lines",10-45%
same,"apoptotic events, sorafenib alone","HepG2 cells [2]; HepG2, 72 hours, sorafenib from no drug to 3 μM",increased apoptotic events
same,"additional increase in apoptosis, sorafenib with TTFields","HepG2 cells [2]; HepG2, sorafenib + TTFields 150 kHz 1.0 V/cm, 72 hours, range stated for both cell lines",10-45%
same,pIC50,"Huh-7D12 cells [3]; Homo sapiens, Huh-7D12, sorafenib alone, 72 hours, read-out: IC50 (number of cells, percentage of control)",~6.00
same,cytotoxicity of combined treatment of TTFields and sorafenib,"Huh-7D12 cells [3]; Huh-7D12, sorafenib 0.1-3.0 μM + TTFields 150 kHz 1.7 V/cm, 72 hours, 2-way ANOVA p<0.001",enhanced cytotoxicity
same,"overall effect, sorafenib in combination with TTFields vs sorafenib alone","Huh-7D12 cells [3]; Huh-7D12, sorafenib 0.1-3.0 μM, TTFields 1.7 V/cm",improvement provided by TTFields can be seen even at low levels of sorafenib
same,cytotoxicity of combined treatment of TTFields and sorafenib,"HepG2 cells [4]; HepG2, sorafenib 0.1-3.0 μM + TTFields 150 kHz 1.0 V/cm, 72 hours, 2-way ANOVA p<0.001",enhanced cytotoxicity
same,"overall effect, sorafenib in combination with TTFields vs sorafenib alone","HepG2 cells [4]; HepG2, sorafenib 0.1-3.0 μM, TTFields 1.0 V/cm",improvement provided by TTFields can be seen even at low levels of sorafenib
same,pIC50,"HepG2 cells [4]; Homo sapiens, HepG2, sorafenib alone, 72 hours, read-out: IC50 (number of cells, percentage of control)",~6.00
same,"clonogenic potential, sorafenib monotherapy","Huh-7D12 cells [5]; Huh-7D12, escalating dose of sorafenib alone",reduction in the clonogenic potential
same,"clonogenic survival, combined treatment of TTFields and sorafenib","Huh-7D12 cells [5]; Huh-7D12, sorafenib + TTFields 150 kHz 1.7 V/cm, 72 hours",additional reduction in the clonogenic survival
same,"clonogenic potential, sorafenib monotherapy","HepG2 cells [6]; HepG2, escalating dose of sorafenib alone",reduction in the clonogenic potential
same,"clonogenic survival, combined treatment of TTFields and sorafenib","HepG2 cells [6]; HepG2, sorafenib + TTFields 150 kHz 1.0 V/cm, 72 hours",additional reduction in the clonogenic survival
same,"tumor volume (day 14 divided by day 6, MRI), combination of TTFields and sorafenib",[7],synergistic decrease in tumor volume
